Converted amounts (≈) assume the structure as drawn.

The results in this text go back to ChEMBL document CHEMBL4152365, “Discovery of DS-6930, a potent selective PPARγ modulator. Part I: Lead identification” (Bioorg Med Chem, 2018).

Tested on in one data set: not listed separately
The data set can be described thus: Metabolic stability in human liver microsomes after 0.5 hrs. The data set is classed as ADME, microsome. The note with it: read-out: Stability.
With `Cc1cc(F)ccc1Oc1ccc2nc(COc3cccc(C(=O)O)c3)n(C)c2c1`, the remaining at 0.5 h worked out at 59%.

Tested on in a further data set: not listed separately
The data set can be described thus: 1-octanol/PBS distribution co-efficient, log D of the compound at […] at pH 7.4 after 30 mins by HPLC-MS/MS analysis. It counts as physicochemical.
Conditions: not given
Regarding `Cc1cc(F)ccc1Oc1ccc2nc(COc3cccc(C(=O)O)c3)n(C)c2c1`, the logD at 0.5 h was determined as 2.5.

The next data set deals with T1, Peroxisome proliferator-activated receptor gamma (Homo sapiens, UniProt P37231).
T1 sequence (P37231 whole entry): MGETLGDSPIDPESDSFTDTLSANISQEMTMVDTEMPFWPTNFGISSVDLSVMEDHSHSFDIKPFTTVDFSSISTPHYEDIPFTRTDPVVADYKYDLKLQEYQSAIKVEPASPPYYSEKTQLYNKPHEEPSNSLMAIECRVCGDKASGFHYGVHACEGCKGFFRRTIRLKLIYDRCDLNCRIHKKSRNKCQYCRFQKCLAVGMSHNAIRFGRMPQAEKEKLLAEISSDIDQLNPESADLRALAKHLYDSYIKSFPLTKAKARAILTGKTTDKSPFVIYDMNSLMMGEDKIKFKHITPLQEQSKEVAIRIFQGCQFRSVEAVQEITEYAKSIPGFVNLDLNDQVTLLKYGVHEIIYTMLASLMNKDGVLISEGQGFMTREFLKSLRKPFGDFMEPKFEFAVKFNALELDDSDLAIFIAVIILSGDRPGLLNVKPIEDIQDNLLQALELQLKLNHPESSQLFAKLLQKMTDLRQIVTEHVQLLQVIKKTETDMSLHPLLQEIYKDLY
The data set can be described thus: Agonist activity at recombinant human GAL4-DBD fused PPARgamma LBD expressed in COS7 cells after 24 hrs by luciferase reporter gene assay. The data set is classed as cell-based.
Conditions: not given
Consider `Cc1cc(F)ccc1Oc1ccc2nc(COc3cccc(C(=O)O)c3)n(C)c2c1`, for which the concentration for a half-maximal effect (EC50) came out at 22 nM.

Tested on in another data set: not listed separately
In words: Plasma concentration in hyperglycemic KK/Ta mouse at 30 mg/kg/day, po administered through diet for 3 days measured on day 3 post last dose.
Conditions: not given
The data set is classed as ADME, organism-based.
For the compound `Cc1cc(F)ccc1Oc1ccc2nc(COc3cccc(C(=O)O)c3)n(C)c2c1`, the concentration at 72 h came to 190 ng/mL.

The test system of the next data set is Mus musculus. In words: Glucose-lowering effect in hyperglycemic KK/Ta mouse assessed as reduction in plasma glucose level at 30 mg/kg/day, po administered through diet for 3 days relative to control.
Conditions: not given
The data set is classed as functional. Also noted: scale not given: the % may be the effect or the level left.
Take `Cc1cc(F)ccc1Oc1ccc2nc(COc3cccc(C(=O)O)c3)n(C)c2c1`: the Activity was 54.7%.

The next data set has as its system Rattus norvegicus. The data set can be described thus: Toxicity in Zucker diabetic fatty rat assessed as body weight gain at 3 mg/kg, po administered once daily for 14 days relative to control. The data set is classed as organism-based. The note with it: in vivo, 336 h.
As to `Cc1cc(F)ccc1Oc1ccc2nc(COc3cccc(C(=O)O)c3)n(C)c2c1`, the Activity is 11.9%.

Tested on in another data set: not listed separately
The data set can be described thus: AUC (0 to 24 hrs) in Zucker diabetic fatty rat at 3 mg/kg, po dosed once daily for 14 days and followed by additional administeration on day 15. It counts as ADME, organism-based. More on the design: dose 3 mg/kg, time < 24 hr, route oral. As to conditions: in vivo.
As to `Cc1cc(F)ccc1Oc1ccc2nc(COc3cccc(C(=O)O)c3)n(C)c2c1`, the area under the curve (AUC) at 24 h came out at 420 ng·h/mL.

Tested on in another data set: not listed separately
In words: Tmax in Zucker diabetic fatty rat at 3 mg/kg, po dosed once daily for 14 days and followed by additional administeration on day 15. The data set is classed as ADME, organism-based. As to conditions: in vivo.
Take `Cc1cc(F)ccc1Oc1ccc2nc(COc3cccc(C(=O)O)c3)n(C)c2c1`: the Tmax is 4 h.

The next data set addresses T2, Peroxisome proliferator-activated receptor gamma (Homo sapiens) (UniProt P37231).
T2 sequence (whole entry): T1 sequence (P37231 whole entry)
In words: Agonist activity at recombinant human GAL4-DBD fused PPARgamma LBD expressed in COS7 cells at 10 uM after 24 hrs by luciferase reporter gene assay relative to rosiglitazone. It counts as cell-based.
Conditions: not given
Regarding `Cc1cc(F)ccc1Oc1ccc2nc(COc3cccc(C(=O)O)c3)n(C)c2c1`, the Emax was 66%.

For a further data set, the system named is Mus musculus. In words: Toxicity in hyperglycemic KK/Ta mouse assessed as body weight gain at 30 mg/kg/day, po administered through diet for 3 days relative to control. It counts as organism-based. As to conditions: in vivo, 72 h.
For `Cc1cc(F)ccc1Oc1ccc2nc(COc3cccc(C(=O)O)c3)n(C)c2c1`, the Activity was found to be 2.8%.

Tested on in another data set: not listed separately
In words: Cmax in Zucker diabetic fatty rat at 3 mg/kg, po dosed once daily for 14 days and followed by additional administeration on day 15. It counts as ADME, organism-based. More on the design: dose 3 mg/kg, route oral. As to conditions: in vivo.
Turning to `Cc1cc(F)ccc1Oc1ccc2nc(COc3cccc(C(=O)O)c3)n(C)c2c1`, the highest concentration (Cmax) worked out at 42 ng/mL.

Tested on in a further data set: not listed separately
In words: Metabolic stability in rat liver microsomes after 0.5 hrs. It counts as ADME, microsome. The note with it: read-out: Stability.
On to `Cc1cc(F)ccc1Oc1ccc2nc(COc3cccc(C(=O)O)c3)n(C)c2c1`, for which the remaining at 0.5 h worked out at 47%.

Tested on in the next data set: not listed separately
In words: Aqueous thermodynamic solubility of the compound in pH 6.8 solution up to 4 hrs by HPLC-UV analysis. The data set is classed as physicochemical. The note with it: read-out: Therm_solubility.
Consider `Cc1cc(F)ccc1Oc1ccc2nc(COc3cccc(C(=O)O)c3)n(C)c2c1`, for which the solubility thermodynamic at 4 h stood at 1.7 µg/mL (≈ 4.18 µM).

Another data set relates to Rattus norvegicus. The data set can be described thus: Glucose-lowering effect in Zucker diabetic fatty rat assessed as reduction in plasma glucose level at 3 mg/kg, po administered once daily for 14 days measured on day 14 post last dose relative to control. It counts as functional. Also noted: scale not given: the % may be the effect or the level left.
Conditions: not given
Take `Cc1cc(F)ccc1Oc1ccc2nc(COc3cccc(C(=O)O)c3)n(C)c2c1`: the Activity came to 22%.

A further data set addresses T3, Peroxisome proliferator-activated receptor alpha (Homo sapiens) (UniProt Q07869).
T3 sequence (whole entry): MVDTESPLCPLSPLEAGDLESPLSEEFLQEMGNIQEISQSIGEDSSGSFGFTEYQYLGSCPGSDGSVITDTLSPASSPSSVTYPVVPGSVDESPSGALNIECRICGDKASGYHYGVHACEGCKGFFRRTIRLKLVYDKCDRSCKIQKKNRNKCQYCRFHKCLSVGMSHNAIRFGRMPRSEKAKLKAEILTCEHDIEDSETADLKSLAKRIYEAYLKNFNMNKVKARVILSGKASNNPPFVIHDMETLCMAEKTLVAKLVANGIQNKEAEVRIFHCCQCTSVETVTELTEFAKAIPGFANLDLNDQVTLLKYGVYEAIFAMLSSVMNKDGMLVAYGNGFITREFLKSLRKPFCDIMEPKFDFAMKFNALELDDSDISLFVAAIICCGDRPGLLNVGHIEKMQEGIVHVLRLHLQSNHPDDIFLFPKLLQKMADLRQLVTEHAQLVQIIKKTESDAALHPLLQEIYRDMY
The data set can be described thus: Agonist activity at recombinant human GAL4-DBD fused PPARalpha LBD expressed in COS7 cells at 10 uM after 24 hrs by luciferase reporter gene assay relative to 2-(4-tert-Butylphenoxy)-3-[4-[2-[(4-pyridin-2-ylbenzoyl)amino]ethoxy].
Conditions: not given
The data set is classed as cell-based.
As for `Cc1cc(F)ccc1Oc1ccc2nc(COc3cccc(C(=O)O)c3)n(C)c2c1`, the Emax was determined as 19%.

For another data set, the target named is T4, Peroxisome proliferator-activated receptor alpha (Homo sapiens, UniProt Q07869).
T4 sequence (Q07869 whole entry): T3 sequence (whole entry)
In words: Agonist activity at recombinant human GAL4-DBD fused PPARalpha LBD expressed in COS7 cells after 24 hrs by luciferase reporter gene assay. It counts as cell-based.
Conditions: not given
Turning to `Cc1cc(F)ccc1Oc1ccc2nc(COc3cccc(C(=O)O)c3)n(C)c2c1`, the EC50 was greater than 10000 nM.
